Results reported in the NIST ThermoML archive (doi:10.1021/je800998u).
Numbers after ± are expanded uncertainties.

Assay: molar heat capacity at constant pressure
Conditions: 101.33 kPa, Crystal 2, Small (less than 1 g) adiabatic calorimetry

CC(C)COCC(C)C [diisobutyl ether]
Conditions	molar heat capacity at constant pressure [J/K/mol]
8.82 K	1.718 ± 0.05
9.09 K	1.873 ± 0.053
9.35 K	2.044 ± 0.055
9.61 K	2.275 ± 0.059
9.86 K	2.429 ± 0.061
10 K	2.519 ± 0.064
10.18 K	2.65 ± 0.064
10.58 K	2.937 ± 0.068
10.96 K	3.313 ± 0.074
11.34 K	3.685 ± 0.079
11.75 K	4.078 ± 0.085
12.13 K	4.434 ± 0.089
12.5 K	4.803 ± 0.094
12.88 K	5.199 ± 0.099
13.25 K	5.584 ± 0.1
13.61 K	6.04 ± 0.11
13.98 K	6.505 ± 0.12
14.34 K	6.941 ± 0.12
14.71 K	7.42 ± 0.13
15 K	7.709 ± 0.13
15.07 K	7.816 ± 0.13
15.44 K	8.198 ± 0.14
15.8 K	8.608 ± 0.14
16.15 K	9.109 ± 0.15
16.51 K	9.706 ± 0.15
16.86 K	10.12 ± 0.16
17.21 K	10.68 ± 0.16
17.57 K	11.14 ± 0.17
17.92 K	11.79 ± 0.17
18.28 K	12.13 ± 0.18
18.63 K	12.7 ± 0.18
18.98 K	13.24 ± 0.19
19.33 K	13.71 ± 0.19
19.68 K	14.26 ± 0.2
20 K	14.73 ± 0.2
20.03 K	14.7 ± 0.2
20.68 K	15.81 ± 0.21
21.44 K	17.01 ± 0.22
22.21 K	18.14 ± 0.22
22.97 K	19.36 ± 0.23
23.73 K	20.47 ± 0.24
24.49 K	21.77 ± 0.24
25 K	22.61 ± 0.25
25.25 K	22.85 ± 0.25
26 K	24.23 ± 0.26
26.76 K	25.53 ± 0.26
27.53 K	26.72 ± 0.26
28.29 K	27.81 ± 0.26
29.04 K	29.05 ± 0.27
29.8 K	30 ± 0.26
30 K	30.39 ± 0.25
30.56 K	31.03 ± 0.26
31.31 K	32.45 ± 0.26
32.07 K	33.45 ± 0.27
32.84 K	34.56 ± 0.27
33.59 K	35.68 ± 0.28
34.35 K	36.74 ± 0.28
35 K	37.65 ± 0.29
35.1 K	37.87 ± 0.29
35.86 K	38.82 ± 0.29
36.61 K	39.8 ± 0.3
37.36 K	40.72 ± 0.3
38.11 K	42.01 ± 0.31
38.86 K	43.03 ± 0.32
39.62 K	44.08 ± 0.32
40 K	44.52 ± 0.32
40.37 K	45.1 ± 0.33
41.12 K	46.17 ± 0.33
41.87 K	47.05 ± 0.34
42.62 K	47.91 ± 0.34
43.37 K	48.99 ± 0.35
44.12 K	49.85 ± 0.35
44.88 K	50.69 ± 0.35
45 K	51.04 ± 0.36
45.63 K	51.79 ± 0.36
46.38 K	52.94 ± 0.37
47.13 K	53.72 ± 0.37
47.88 K	54.52 ± 0.37
48.63 K	55.63 ± 0.38
49.38 K	56.47 ± 0.38
50 K	57.22 ± 0.39
50.12 K	57.39 ± 0.39
50.87 K	58.27 ± 0.39
51.62 K	59.17 ± 0.4
52.36 K	60.07 ± 0.4
53.11 K	61.06 ± 0.41
53.85 K	62.18 ± 0.41
54.6 K	63.09 ± 0.42
55 K	63.54 ± 0.42
55.34 K	63.95 ± 0.42
56.09 K	64.95 ± 0.43
56.83 K	66.04 ± 0.43
57.57 K	67.47 ± 0.44
59.06 K	68.36 ± 0.44
59.81 K	69.16 ± 0.45
60 K	69.69 ± 0.45
60.55 K	69.92 ± 0.45
61.29 K	71.03 ± 0.46
62.03 K	72.13 ± 0.46
62.77 K	72.85 ± 0.47
63.51 K	73.59 ± 0.47
64.25 K	74.59 ± 0.47
64.99 K	75.44 ± 0.48
65 K	75.34 ± 0.48
65.73 K	76.13 ± 0.48
66.47 K	76.73 ± 0.48
67.21 K	77.8 ± 0.49
67.95 K	78.53 ± 0.49
68.69 K	79.4 ± 0.5
69.43 K	79.64 ± 0.5
70 K	80.28 ± 0.5
70.16 K	80.5 ± 0.5
71.06 K	80.99 ± 0.51
72.11 K	81.81 ± 0.51
73.16 K	83.2 ± 0.52
74.21 K	84.22 ± 0.52
75 K	84.76 ± 0.52
75.26 K	84.92 ± 0.53
76.31 K	85.85 ± 0.53
77.36 K	86.85 ± 0.54
77.99 K	88.21 ± 0.54
78.41 K	87.75 ± 0.54
79.13 K	89.1 ± 0.55
79.45 K	89.04 ± 0.55
80 K	89.65 ± 0.55
80.18 K	90.02 ± 0.55
80.5 K	89.99 ± 0.55
81.22 K	91.36 ± 0.56
81.55 K	90.95 ± 0.56
82.26 K	92.28 ± 0.56
82.59 K	92.15 ± 0.56
83.3 K	92.88 ± 0.56
83.63 K	93.23 ± 0.57
84.34 K	93.83 ± 0.57
84.68 K	93.86 ± 0.57
85 K	94.92 ± 0.58
85.37 K	94.92 ± 0.58
85.72 K	96.14 ± 0.58
86.41 K	96.9 ± 0.58
87.44 K	97.86 ± 0.59
88.48 K	98.97 ± 0.59
89.51 K	100 ± 0.6
90 K	100.3 ± 0.6
90.55 K	101.18 ± 0.61
91.58 K	101.87 ± 0.61
92.61 K	102.82 ± 0.61
93.65 K	104.36 ± 0.62
94.68 K	104.93 ± 0.62
95 K	105.3 ± 0.6
95.71 K	105.7 ± 0.62
96.75 K	106.52 ± 0.63
97.78 K	107.57 ± 0.63
98.81 K	108.62 ± 0.63
99.84 K	109.08 ± 0.64
100 K	109.7 ± 0.6
100.86 K	110.59 ± 0.64
101.89 K	111.96 ± 0.65
102.92 K	112.24 ± 0.65
103.95 K	113.24 ± 0.65
104.98 K	114.44 ± 0.66
106.01 K	115.08 ± 0.66
107.04 K	116.13 ± 0.66
108.06 K	116.43 ± 0.67
109.09 K	117.54 ± 0.67
110 K	118.6 ± 0.7
110.11 K	118.56 ± 0.67
111.14 K	119.31 ± 0.68
112.16 K	120.35 ± 0.68
113.18 K	121.34 ± 0.69
114.21 K	122.79 ± 0.69
115.23 K	123.92 ± 0.7
116.25 K	124.47 ± 0.7
117.27 K	125.86 ± 0.7
118.29 K	126.81 ± 0.71
119.32 K	127.51 ± 0.71
120 K	128 ± 0.7
120.34 K	128.32 ± 0.71
121.36 K	129.04 ± 0.72
122.38 K	130.15 ± 0.72
123.4 K	131.15 ± 0.72
124.42 K	131.86 ± 0.73
125.44 K	132.59 ± 0.73
126.46 K	133.8 ± 0.74
127.47 K	134.67 ± 0.74
128.49 K	135.82 ± 0.74
129.51 K	137.05 ± 0.75
130 K	137.1 ± 0.8
130.53 K	137.63 ± 0.75
131.54 K	138.57 ± 0.75
132.56 K	139.45 ± 0.76
133.57 K	140.23 ± 0.76
134.59 K	141.56 ± 0.77
135.6 K	142.61 ± 0.77
136.62 K	143.17 ± 0.77
137.63 K	144.11 ± 0.78
138.64 K	145.82 ± 0.78
139.66 K	146.49 ± 0.79
140 K	147 ± 0.8
